Entries after “also recorded” stand apart in the source; their conditions may differ. Counter-ions that a name gives are not always drawn.
Key:
[1] = rat, intraperitoneal dose; cited from earlier work
[2] = Morris watermaze spatial memory task
[3] = test system: hippocampal CA1 pyramidal cells; test: Intracellular recording of CA1 pyramidal cells: membrane potential θ, discharge, input resistance; format: cell-based, rat
Experimental: (§1) Hippocampal slice electrophysiology. CA1 field potentials were recorded with glass microelectrodes filled with an artificial cerebrospinal fluid solution (ACSF; see below). […] Whole slices were used unless otherwise indicated. […] Signals were amplified with AxoClamp-2B amplifier, digitized, stored, and analyzed using DigiData 1200 with P-Clamp6 software (Axon Instruments). Frequency and amplitude values of oscillation were taken from an average of five consecutive traces, all triggered at the same level of the same phase. Capacitance was optimally adjusted during discontinuous current-clamp mode before and after cell penetration to neutralize capacitance and reduce overshoot/undershoot errors. Discontinuous single-electrode voltage-clamp mode was used for voltage-clamping, employing a sampling rate of 3.0-5.0 kHz (30% duty cycle). Gain was usually set at 6-8 nA·mV^−1, slightly below the maximum value without causing overshoot or instability in the step response to a repetitive 10 mV step command. Bipolar stimulating electrodes (Teflon-insulated PtIr wire with 25 μm in diameter) were placed in s. pyramidale, within 200 μm, from the recording electrode, for stimulation of interneurons (50 μA, 50 μA) in the pyramidale layer. In some cases, the position of the stimulating electrodes was slightly varied within the CA1 cell layer to obtain monophasic postsynaptic responses. […] In some experiments, an additional stimulating electrode was placed in the stratum radiatum to stimulate the Schaffer collateral pathway (Sch). Experiments in which >20% variations in the evoked IPSP magnitudes occurred during the 10-min control period were discarded.

[4] = test system: BAS-CA1 synapses of CA1 pyramidal cells; test: BAS-CA1 postsynaptic potentials of CA1 pyramidal cells (Example 2); format: cell-based, rat; conditions: for effect of ACET itself on BAS-CA1 IPSPs / effect on CE action on the synaptic response: ACET 10 μM; for increase in evoked BAS-CA1 IPSPs: agent injected into the recorded pyramidal cell; for effect on CE action on BAS-CA1 PSP: agent injected into the recorded pyramidal cell before/with CE
Experimental: Chemicals. Cloned CE (without the C-terminal P-loop) containing a His9 leader sequence was expressed in BL21 (DE3) Escherichia coli cells and purified by repeated affinity chromatography on Ni^2+-charged His-Bind columns (Novagen). […] Heat-inactivated proteins (100° C. for 5 min) were used as control.
Electrophysiology. […] CA1 pyramidal cells were recorded intracellularly with sharp electrodes. Intracellular microelectrode recording rather than whole-cell clamp avoids immediate internal perfusion of the test proteins and agents into the cells and marked run-down of γ-aminobutyrate (GABA)-evoked currents. […] A bipolar stimulating electrode (Teflon-insulated PtIr wire 25 μm in diameter) was also placed in the stratum pyramidale, within 200 μm from the recording electrode, for stimulation of basket interneurons (BAS) (50 μA). In some experiments, an additional bipolar electrode was placed in the stratum radiatum to stimulate the Schaffer collateral pathway (SCH). CA1 neurons with stable resting membrane potential more negative than −70 mV were studied. […] Signals were amplified with AxoClamp-2B amplifier and digitized and stored by using a DigiData 1200 with the PCLAMP6 data collection and analysis software (Axon Instruments) and a Pentium PC computer. Experiments in which >20% variations in the evoked inhibitory postsynaptic potentials (IPSPs) during a 10 min control period occurred were discarded. Percent baseline PSP at each minute was calculated by dividing its value by baseline PSP then multiplying the result by 100. Baseline PSP was the mean of 10 min before treatments in each cell. A negative sign was added to indicate its inhibitory nature so that −100% is baseline IPSP and a positive value indicates an excitatory response. Differences were considered significant at P<0.05.

[5] = test system: GABAergic inputs to hippocampal CA1 pyramidal cells; test: Evoked GABAergic postsynaptic responses (IPSPs) of CA1 pyramidal cells; format: cell-based, rat
Experimental: as §1

[6] = test system: hippocampal CA1 field potential; test: CA1 field potential θ oscillation in hippocampal slices; format: cell-based, rat
Experimental: as §1

[7] = test system: SCH-CA1 excitatory postsynaptic potentials; test: Schaffer collateral (SCH)-CA1 excitatory postsynaptic potentials; format: cell-based, rat
Experimental: Hippocampal slice electrophysiology. CA1 field potentials were recorded with glass microelectrodes filled with an artificial cerebrospinal fluid solution (ACSF; see below). Male Sprague-Dawley rats ([…]) were decapitated, and the brains were removed and cooled rapidly in an ACSF solution (˜4° C.), bubbled continuously with 95% O2-5% CO2. Hippocampi were sliced ([…]), placed in oxygenated ACSF (in mM: 124 NaCl, 3 KCl; 1.3 MgSO4; 2.4 CaCl2; 26 NaHCO3; 1.25 NaH2PO4; and 10 glucose), and perfused (2 ml/min) with the oxygenated ACSF in an interface chamber at 30-31 ° C. Whole slices were used unless otherwise indicated. CA1 pyramidal cells were recorded intracellularly (Sun, M. -K., Nelson, T. J., Xu, H., and Alkon, D. L. Calexcitin transformation of GABAergic synapses: from excitation filter to amplifier. Proc. Natl. Acad. Sci. USA 96: 7023-7028, 1999, for cell labeling) with sharp electrodes (3M KAc; tip resistance: 60-120 M; to prevent “run-down” of GABAergic responses in whole-cell recordings due to wash out of intracellular factors). […] Signals were amplified with AxoClamp-2B amplifier, digitized, stored, and analyzed using DigiData 1200 with P-Clamp6 software (Axon Instruments). […]
Electrophysiology. […] CA1 pyramidal cells were recorded intracellularly with sharp electrodes. […]

[8] = test system: SCH-CA1 excitatory postsynaptic potentials; conditions: kynurenate 500 μM (Sun et al. 1999); cited from earlier work
RyR = conditions: cited from earlier work
[9] = 30 min, listed as Acetazolamide
[10] = CA3 and dentate gyrus dissected away
[11] = kynurenate 500 μM, 20-30 min, CCH-induced θ

CC(=O)Nc1nnc(S(N)(=O)=O)s1 [ACET, acetazolamide]
time to peak concentration in the blood [1]: ≤ 1 h
reduction in escape latency during training trials vs saline group ([2]; ACET 5 mg/0.5 ml/day ip (14-18 mg/kg), 65-70 min before first trial): strikingly smaller reduction
quadrant preference 24 h after last training trial ([2]; ACET 5 mg/0.5 ml/day ip during training): no preference to a particular quadrant
signs of discomfort or abnormal behaviors ([2]; during the experimental periods): no rats showed any apparent sign of discomfort or abnormal behaviors
memory retrieval: quadrant 4 preference vs saline control rats ([2]; single ACET injection (5 mg/0.5 ml) 24 h after last training trial of trained rats, test 65-70 min later): no significant difference
effect on calexcitin-induced intracellular θ activity [3]: did not induce; also recorded: prevented
induction of intracellular θ activity by CCH in presence of ACET [3]: nor intracellular θ activity (n=10; FIG. 4B3) was induced
effect on CE-induced synaptic transformation ([4]; ACET 1 μM): eliminates
BAS-CA1 IPSPs 30 min after CE injection in the presence of ACET ([4]; ACET 1 μM, 30 min, vs −100% control value): −99.2±3.5%
effect of ACET itself on BAS-CA1 IPSPs ([4]; 30 min): sufficient to transform the BAS-CA1 IPSPs
effect on CE action on the synaptic response ([4]; 30 min): abolishing effects of CE
effect of ACET itself on BAS-CA1 IPSPs [4, 9]: sufficient to maintain IPSPs
effect on CE action on the synaptic response [4, 9]: eliminating transformative effects of calexcitin
evoked IPSP in the presence of ACET and CCH ([5]; bath ACET 1 μM, CCH 50 μM): −7.7±1.0 mV

O=C(O)CN(CC(=O)O)c1ccccc1OCCOc1ccccc1N(CC(=O)O)CC(=O)O [BAPTA, 1,2-bis(2-aminophenoxy)ethane-N,N,N′,N′-tetraacetic acid]
increase in evoked BAS-CA1 IPSPs [4]: 17.4%±3.9%
effect on CE action on BAS-CA1 PSP [4]: not induced; also recorded: blocking

C[N+](C)(C)CCOC(N)=O [CCH, carbachol]
CCH-induced θ activity amplitude in CA1 minislices [6, 10]: 0.73±0.04 mV
CCH-induced θ activity frequency in CA1 minislices [6, 10]: 7.7±0.9 Hz
duration of θ field potential (post-CCH recording period) ([6]; CCH 50 μM, 20 min): ~3 h
θ field potential peak amplitude ([6]; CCH 50 μM, 20 min, bath applied, whole slices): 0.75±0.03 mV
θ field potential frequency ([6]; CCH 50 μM, 20 min, whole slices): 7.8±0.8 Hz
input resistance when θ activity became evident ([3]; CCH): 79.2±1.6 MΩ
θ oscillation of membrane potential (intracellular θ) ([3]; CCH 50 μM): 7.8±1.1 mV
averaged discharge rate ([3]; CCH, 5-min observing period): 2.7±0.3 spikes/s
GABAergic postsynaptic response after CCH ([5]; 30 min after CCH application, pre-CCH membrane potential maintained): +5.1±0.4 mV
reversal potential of GABAergic postsynaptic responses ([5]; during CCH 50 μM): −68.4±2.8 mV
response of pyramidal cells to stimulation of GABAergic inputs ([5]; in the presence of CCH, θ frequency stimulation): elicited instantly phase-locked firing of pyramidal cells
evoked GABAergic current after CCH (inward current) ([5]; voltage clamp, CCH 50 μM): 0.19±0.05 nA
single-pulse SCH stimulation-evoked excitatory postsynaptic potential ([7]; CCH): not altered

O=C(O)c1cc(=O)c2ccccc2[nH]1 [KYN, kynurenic acid]
θ oscillation frequency in presence of kynurenate [6, 11]: did not change
θ oscillation magnitude in presence of kynurenate [6, 11]: slightly reduced
excitatory postsynaptic responses of CA1 pyramidal cells to SCH stimulation [8]: effectively abolished
BAS-CA1 IPSP in the presence of KYN ([4]; KYN 500 μM): −8.1±0.4 mV
reversal potential of BAS-CA1 PSPs in the presence of KYN ([4]; KYN 500 μM): −78.9 mV
effect on evoked BAS-CA1 IPSPs ([4]; KYN 500 μM, 20 min): does not alter
effect on evoked IPSPs ([5]; kynurenate 500 μM): not altered
elimination of SCH-CA1 EPSPs ([7]; KYN 500 μM, 20 min): > 90%

N.N.N.N.N.N.N.N.N.N.N.N.N.N.[Cl-].[Cl-].[Cl-].[Cl-].[Cl-].[Cl-].[O-2].[O-2].[Ru+3].[Ru+3].[Ru+4] [RR, ruthenium red]
increase in evoked BAS-CA1 IPSPs [4]: 16.3%±4.0%
effect on CE action on BAS-CA1 PSP [4]: effectively blocked
IC50 (RyR): nanomolar range

CN1[C@@H]2CC[C@H]1C[C@@H](OC(=O)C(CO)c1ccccc1)C2 (stereo partly drawn) [atropine sulfate]
effect on CCH-induced θ field activity [6]: blocked

NS(=O)(=O)c1nnc(NS(=O)(=O)c2ccccc2)s1 [benzolamide]
effect on CCH-induced reversed GABAergic responses ([5]; intracellular application of benzolamide (0.1 mM in electrode)): prevented
